Measured values: patent US5518735A, “Meta-substituted phenylalanine derivatives” (priority 1990, dated 1996)
Counter-ions that a name gives are not always drawn. Like-named read-outs stand apart in the source and are kept apart here.

Legend:
factor Xa = factor Xa (Bos taurus, UniProt P00743); assay: Inhibition of factor Xa (dissociation constant Ki); format: biochemical
thrombin = thrombin (Bos taurus, UniProt P00735); assay: Inhibition of thrombin (dissociation constant Ki); format: biochemical
factor XIIa = molecular target: T1, factor XIIa (Homo sapiens, UniProt P00748); assay: Inhibition of factor XIIa (Ki); format: biochemical; conditions: Table 26
T1 construct: glandular kallikrein, factor XIIa and plasma kallikrein
T1 sequence (P00748 373-615 limits assumed): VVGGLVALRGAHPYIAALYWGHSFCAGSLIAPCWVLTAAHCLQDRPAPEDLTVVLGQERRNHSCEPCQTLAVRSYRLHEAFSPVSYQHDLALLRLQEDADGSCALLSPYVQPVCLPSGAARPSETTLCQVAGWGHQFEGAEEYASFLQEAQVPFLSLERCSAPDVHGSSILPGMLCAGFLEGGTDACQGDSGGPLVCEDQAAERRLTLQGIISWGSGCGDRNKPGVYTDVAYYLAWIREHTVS

in vivo = conditions: mouse
glandular kallikrein = glandular kallikrein (Sus scrofa, UniProt P00752); assay: Inhibition of glandular kallikrein (Ki); format: biochemical; conditions: Table 26; read-out: Ki, Gland. Kallikrein
tPA = tPA (Homo sapiens, UniProt P00750); assay: Inhibition of tPA (Ki); format: biochemical; conditions: Table 26
plasmin = molecular target: T2, plasmin (Homo sapiens, UniProt P00747); assay: Inhibition of plasmin (Ki); format: biochemical; conditions: Table 26
T2 construct: trypsin and the related enzymes thrombin, plasmin, factor Xa, tPA

plasma kallikrein = molecular target: T3, plasma kallikrein (Homo sapiens, UniProt P03952); assay: Inhibition of plasma kallikrein (Ki); format: biochemical; conditions: Table 26
T3 construct: glandular kallikrein, factor XIIa and plasma kallikrein

[1] = Tables 19-25, read-out: Ki, Factor Xa

tPA, sequence (P00750 36-562): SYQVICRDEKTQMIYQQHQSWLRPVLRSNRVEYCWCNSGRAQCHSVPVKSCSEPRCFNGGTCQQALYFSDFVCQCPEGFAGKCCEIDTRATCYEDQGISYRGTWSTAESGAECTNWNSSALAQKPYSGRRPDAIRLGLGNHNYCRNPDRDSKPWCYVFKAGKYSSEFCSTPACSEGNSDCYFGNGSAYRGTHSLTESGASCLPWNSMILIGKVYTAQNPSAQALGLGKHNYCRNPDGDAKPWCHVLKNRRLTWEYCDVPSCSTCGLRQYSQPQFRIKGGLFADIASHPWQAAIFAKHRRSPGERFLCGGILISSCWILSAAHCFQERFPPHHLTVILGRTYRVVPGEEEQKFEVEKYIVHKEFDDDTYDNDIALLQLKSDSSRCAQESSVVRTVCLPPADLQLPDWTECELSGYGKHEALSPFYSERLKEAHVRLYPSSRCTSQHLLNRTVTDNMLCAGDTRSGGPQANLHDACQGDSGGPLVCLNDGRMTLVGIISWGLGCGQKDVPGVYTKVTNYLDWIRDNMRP
T3 sequence (P03952 391-638 limits assumed, species assumed): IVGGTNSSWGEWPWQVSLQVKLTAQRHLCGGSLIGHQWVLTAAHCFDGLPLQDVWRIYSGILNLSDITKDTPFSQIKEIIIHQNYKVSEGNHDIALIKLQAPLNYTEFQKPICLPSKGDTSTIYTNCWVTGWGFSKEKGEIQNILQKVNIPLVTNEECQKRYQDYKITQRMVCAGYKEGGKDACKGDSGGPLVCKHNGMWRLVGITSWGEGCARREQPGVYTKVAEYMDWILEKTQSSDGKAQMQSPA
T3 sequence (P03952 20-390 partner limits assumed, species assumed): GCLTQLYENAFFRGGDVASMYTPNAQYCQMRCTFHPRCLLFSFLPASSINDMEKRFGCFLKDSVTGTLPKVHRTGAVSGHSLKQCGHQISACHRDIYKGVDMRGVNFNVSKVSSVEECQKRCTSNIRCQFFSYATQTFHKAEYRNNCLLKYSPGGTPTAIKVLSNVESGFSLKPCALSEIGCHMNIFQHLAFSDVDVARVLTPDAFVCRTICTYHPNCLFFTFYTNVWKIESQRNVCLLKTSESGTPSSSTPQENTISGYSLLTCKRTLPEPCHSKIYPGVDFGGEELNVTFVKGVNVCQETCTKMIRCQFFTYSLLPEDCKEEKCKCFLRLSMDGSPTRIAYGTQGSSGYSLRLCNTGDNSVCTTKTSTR
T2 sequence (P00747 581-810 limits assumed): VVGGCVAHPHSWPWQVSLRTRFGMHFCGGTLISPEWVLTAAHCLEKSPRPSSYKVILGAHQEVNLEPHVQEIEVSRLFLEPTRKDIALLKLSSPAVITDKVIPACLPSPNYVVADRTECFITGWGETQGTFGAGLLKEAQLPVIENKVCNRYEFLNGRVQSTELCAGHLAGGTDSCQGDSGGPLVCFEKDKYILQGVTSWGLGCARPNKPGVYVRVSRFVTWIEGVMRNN
T2 sequence (P00747 97-580 partner limits assumed): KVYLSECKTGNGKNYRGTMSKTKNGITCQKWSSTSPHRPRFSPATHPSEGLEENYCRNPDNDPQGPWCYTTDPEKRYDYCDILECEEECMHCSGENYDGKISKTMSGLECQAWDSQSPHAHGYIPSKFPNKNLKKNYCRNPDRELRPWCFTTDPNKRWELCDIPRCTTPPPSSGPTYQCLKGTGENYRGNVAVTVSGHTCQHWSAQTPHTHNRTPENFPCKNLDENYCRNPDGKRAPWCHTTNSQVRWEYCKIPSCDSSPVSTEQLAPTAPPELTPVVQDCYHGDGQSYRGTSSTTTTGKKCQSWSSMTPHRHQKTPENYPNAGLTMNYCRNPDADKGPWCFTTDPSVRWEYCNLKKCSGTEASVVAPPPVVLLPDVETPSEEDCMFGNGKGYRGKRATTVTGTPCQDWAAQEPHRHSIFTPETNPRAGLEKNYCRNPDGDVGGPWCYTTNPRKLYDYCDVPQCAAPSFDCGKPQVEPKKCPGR
glandular kallikrein, sequence (P00752 8-246): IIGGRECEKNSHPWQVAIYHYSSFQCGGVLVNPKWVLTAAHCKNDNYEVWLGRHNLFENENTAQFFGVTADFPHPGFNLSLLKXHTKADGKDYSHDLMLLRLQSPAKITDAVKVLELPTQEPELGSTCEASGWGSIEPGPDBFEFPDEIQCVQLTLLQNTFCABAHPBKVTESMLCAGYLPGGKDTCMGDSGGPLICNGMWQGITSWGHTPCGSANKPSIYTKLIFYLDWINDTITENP
factor Xa, sequence (P00743 234-492 limits assumed): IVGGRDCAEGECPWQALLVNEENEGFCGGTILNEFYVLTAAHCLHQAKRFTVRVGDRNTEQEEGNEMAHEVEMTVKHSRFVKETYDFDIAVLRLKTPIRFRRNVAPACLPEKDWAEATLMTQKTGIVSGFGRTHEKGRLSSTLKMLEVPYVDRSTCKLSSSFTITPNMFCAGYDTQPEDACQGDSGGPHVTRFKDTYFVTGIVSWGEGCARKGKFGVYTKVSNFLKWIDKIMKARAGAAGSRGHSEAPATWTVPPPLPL
factor Xa, sequence (P00743 41-180 partner limits assumed): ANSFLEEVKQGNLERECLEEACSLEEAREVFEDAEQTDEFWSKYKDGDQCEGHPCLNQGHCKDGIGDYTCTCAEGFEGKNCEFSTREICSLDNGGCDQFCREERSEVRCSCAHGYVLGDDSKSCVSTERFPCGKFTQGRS

Row | Ki (factor Xa; [1]) | Ki (thrombin) | Compound | Ki (factor XIIa) | LD50 at 168 h (in vivo; iv) | LD50 at 168 h (in vivo; po) | Ki (glandular kallikrein) | Ki (tPA) | Ki (plasmin) | Ki (plasma kallikrein) | Ki (factor Xa)
1 | 54 µM | 0.12 µM | N=C(N)c1cccc(CC(NS(=O)(=O)c2ccc3ccccc3c2)C(=O)N2CC3CCCCC3CC2C(=O)O)c1 (racemic) [Compound 151, N-α-(2-Naphthylsulfonyl)-3-amidino-(D,L)-phenylalanyl-decahydroisoquinoline-3-carboxylic acid hydrochloride] |  |  |  |  |  |  |  | 
2 | 410 µM | 330 µM | N=C(NO)c1cccc(CC(NS(=O)(=O)c2ccc3ccccc3c2)C(=O)N2CCCCC2C(=O)O)c1 (racemic) [Compound 188, N-α-(2-Naphthylsulfonyl)-3-oxamidino-(D,L)-phenylalanyl-(D,L)-pipecolic acid hydroiodide] |  |  |  |  |  |  |  | 
3 | 380 µM | 16 µM | N=C(N)c1cccc(CC(NS(=O)(=O)c2cccc3cccnc23)C(=O)N2CCCCC2C(=O)O)c1 (racemic) [Compound 180] |  |  |  |  |  |  |  | 
4 | 74 µM | 0.13 µM | CC1CCCCN1C(=O)C(Cc1cccc(C(=N)N)c1)NS(=O)(=O)c1ccc2ccccc2c1 (racemic) [Compound 32] |  |  |  |  |  |  |  | 
5 | 46 µM | 0.07 µM | COC(=O)C1CCCCN1C(=O)C(Cc1cccc(C(=N)N)c1)NS(=O)(=O)c1ccc2ccccc2c1 (racemic) [Compound 94] | 500 µM |  |  | > 1000 µM | 220 µM | 10.5 µM | 35 µM | 
6 | 110 µM | 1.3 µM | N=C(N)c1cccc(CC(NS(=O)(=O)c2ccc3ccccc3c2)C(=O)N2CCCCC2C(=O)NCC(=O)O)c1 (racemic) [Compound 116, N-α-(2-Naphthylsulfonyl)-3-amidino-(D,L)-phenylalanyl-(D,L)-pipecolyl-glycine hydrochloride] |  |  |  |  |  |  |  | 
7 | 48 µM | 61 µM | N=C(N)c1cccc(CC(NC(=O)CNS(=O)(=O)c2ccc3ccccc3c2)C(=O)N2CCCCC2C(=O)O)c1 (racemic) [Compound 165] |  |  |  |  |  |  |  | 

Further lines, the molecule ahead of its results:

Row | Compound | Ki (factor Xa; [1]) | Ki (thrombin) | Ki (factor XIIa) | LD50 at 168 h (in vivo; iv) | LD50 at 168 h (in vivo; po) | Ki (glandular kallikrein) | Ki (tPA) | Ki (plasmin) | Ki (plasma kallikrein) | Ki (factor Xa)
8 | COC(=O)[C@H](Cc1cccc(C(=N)N)c1)NC(=O)CNS(=O)(=O)c1ccc(C)cc1 [TAPAM, Nα-tosylglycyl-3-amidinophenylalanine methyl ester, reference compound] |  |  | 180 µM | 103 mg/kg | > 1000 mg/kg | 890 µM | 27 µM | 160 µM | 15 µM | 
9 | CN1CCN(C(=O)C(Cc2cccc(C(=N)N)c2)NS(=O)(=O)c2ccc3ccccc3c2)CC1 (racemic) [Compound 35] |  |  | > 1000 µM |  |  | > 1000 µM | 430 µM | 31 µM | 85 µM | 30 µM
10 | N=C(N)c1cccc(CC(NS(=O)(=O)c2cccc3cccnc23)C(=O)N2CCC(C(=O)O)CC2)c1 (racemic) [Compound 181] | 260 µM | 127 µM |  |  |  |  |  |  |  | 
11 | N=C(N)c1cccc(CC(NC(=O)CNS(=O)(=O)c2ccc3ccccc3c2)C(=O)N2CCC(C(=O)O)CC2)c1 (racemic) [Compound 166] | 97 µM | 46 µM |  |  |  |  |  |  |  | 
12 | COC(=O)C(Cc1cccc(C(=N)N)c1)NS(=O)(=O)c1ccc2ccccc2c1 (racemic) [Compound 7] | 2.5 µM | 0.28 µM | 190 µM |  |  | 210 µM | 120 µM | 5.2 µM | 18 µM | 
